# Source: ChEMBL document CHEMBL6153138, “Discovery of Novel Aromatic Urea-Imidazole Salt Derivatives for Cancer Therapy via Targeting ERK1/2” (J Med Chem, 2025)
# What was measured:
# [1] = molecular target: Mitogen-activated protein kinase 1 (Homo sapiens, UniProt P28482); test: Inhibition of ERK2 (unknown origin) incubated for 60 mins by luminescence based ADP-Glo kinase assay
# MCF7 = test: Antiproliferative activity against human MCF7 cells incubated for 48 hrs by CCK-8 method; format: functional, cell-based; details: MCF7, 48 h
# MDA-MB-468 = test: Antiproliferative activity against human MDA-MB-468 cells incubated for 48 hrs by CCK-8 method; format: functional, cell-based; details: MDA-MB-468, 48 h
# MCF-10A = test: Antiproliferative activity against human MCF-10A cells incubated for 48 hrs by CCK-8 method; format: functional, cell-based
# HCC1937 = test: Antiproliferative activity against human HCC1937 cells incubated for 48 hrs by CCK-8 method; format: functional, cell-based; details: HCC1937, 48 h
# 4T1 = test: Antiproliferative activity against mouse 4T1 cells incubated for 48 hrs by CCK-8 method; format: functional, cell-based; details: 4T1, 48 h
# Chain of Mitogen-activated protein kinase 1 (P28482 whole entry): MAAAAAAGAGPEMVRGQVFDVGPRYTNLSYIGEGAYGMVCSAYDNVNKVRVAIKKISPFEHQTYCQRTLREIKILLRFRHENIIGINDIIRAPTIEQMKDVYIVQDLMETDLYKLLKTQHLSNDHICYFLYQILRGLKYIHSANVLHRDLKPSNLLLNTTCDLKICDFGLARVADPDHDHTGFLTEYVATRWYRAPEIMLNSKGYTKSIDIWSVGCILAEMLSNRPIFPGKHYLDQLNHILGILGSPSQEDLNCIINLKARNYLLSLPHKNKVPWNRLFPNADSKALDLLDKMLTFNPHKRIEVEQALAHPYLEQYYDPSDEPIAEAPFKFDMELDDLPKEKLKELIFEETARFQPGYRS
Structure (SMILES),IC50 [1] [nM],IC50 (MCF7) [nM],IC50 (MDA-MB-468) [nM],IC50 (MCF-10A) [nM],IC50 (HCC1937) [nM],IC50 (4T1) [nM]
O=C(Nc1cc(C(F)(F)F)cc(C(F)(F)F)c1)N[C@@H](Cc1ccccc1)Cn1c[n+](Cc2ccccc2F)c2ccccc21,217,2090,1820,8380,1770,3130
O=C(Nc1cc(C(F)(F)F)cc(C(F)(F)F)c1)N[C@@H](Cc1ccccc1)Cn1c[n+](Cc2ccccc2C(F)(F)F)c2ccccc21,252,1720,1880,7680,2960,4970
O=C(Nc1cc(C(F)(F)F)cc(C(F)(F)F)c1)N[C@@H](Cc1ccccc1)Cn1c[n+](Cc2ccccc2Cl)c2ccccc21,235,1990,2060,9180,1870,3880
O=C(Nc1cc(C(F)(F)F)cc(C(F)(F)F)c1)N[C@@H](Cc1ccccc1)Cn1c[n+](Cc2ccc(Cl)cc2Cl)c2ccccc21,198,1700,2150,> 10000,1540,4630
CC[n+]1cn(C[C@H](Cc2ccccc2)NC(=O)Nc2cc(C(F)(F)F)cc(C(F)(F)F)c2)c2ccccc21,> 10000,> 10000,> 10000,> 10000,> 10000,> 10000
N#Cc1cccc(C[n+]2cn(C[C@H](Cc3ccccc3)NC(=O)Nc3cc(C(F)(F)F)cc(C(F)(F)F)c3)c3ccccc32)c1,335,3360,5290,> 10000,5960,> 10000
O=C(Nc1ccc(Cl)c(C(F)(F)F)c1)N[C@@H](Cc1ccccc1)Cn1c[n+](Cc2ccc3ccccc3c2)c2ccccc21,244,1590,1290,> 10000,2550,> 10000
O=C(Nc1cc(C(F)(F)F)cc(C(F)(F)F)c1)N[C@@H](Cc1ccccc1)Cn1c[n+](Cc2ccc(F)cc2)c2ccccc21,294,2840,3220,> 10000,4200,9670
O=C(Nc1cc(C(F)(F)F)cc(C(F)(F)F)c1)N[C@@H](Cc1ccccc1)Cn1c[n+](Cc2cccc(C(F)(F)F)c2)c2ccccc21,185,1860,2340,> 10000,3480,7030
O=C(Nc1cc(C(F)(F)F)cc(C(F)(F)F)c1)N[C@@H](Cc1ccccc1)Cn1c[n+](Cc2cccc(Cl)c2)c2ccccc21,166,2340,2120,> 10000,3400,3680
O=C(Nc1cc(C(F)(F)F)cc(C(F)(F)F)c1)N[C@@H](Cc1ccccc1)Cn1c[n+](Cc2cc(Cl)ccc2Cl)c2ccccc21,193,3250,2620,> 10000,2050,6780
Cc1ccccc1C[n+]1cn(C[C@H](Cc2ccccc2)NC(=O)Nc2cc(C(F)(F)F)cc(C(F)(F)F)c2)c2ccccc21,123,2770,1910,> 10000,2750,4830
Cc1cccc(C[n+]2cn(C[C@H](Cc3ccccc3)NC(=O)Nc3cc(C(F)(F)F)cc(C(F)(F)F)c3)c3ccccc32)c1,275,1700,2360,> 10000,3720,6780
O=C(Nc1cc(C(F)(F)F)cc(C(F)(F)F)c1)N[C@@H](Cc1ccccc1)Cn1c[n+](Cc2ccc3cccnc3c2)c2ccccc21,370,1790,1810,8220,1130,5290
O=C(Nc1ccc(C(F)(F)F)cc1)N[C@@H](Cc1ccccc1)Cn1c[n+](Cc2ccc3ccccc3c2)c2ccccc21,217,1070,2080,> 10000,2980,3720
N#Cc1ccccc1C[n+]1cn(C[C@H](Cc2ccccc2)NC(=O)Nc2cc(C(F)(F)F)cc(C(F)(F)F)c2)c2ccccc21,414,3840,3640,> 10000,5600,7410
COc1cccc(C[n+]2cn(C[C@H](Cc3ccccc3)NC(=O)Nc3cc(C(F)(F)F)cc(C(F)(F)F)c3)c3ccccc32)c1,247,1320,1570,> 10000,3680,3540
O=C(Nc1ccc(Cl)cc1)N[C@@H](Cc1ccccc1)Cn1c[n+](Cc2ccc3ccccc3c2)c2ccccc21,248,2420,3020,> 10000,1710,7200

Structure (SMILES),IC50 [1] [nM],IC50 (MCF7) [nM],IC50 (MDA-MB-468) [nM],IC50 (MCF-10A) [nM],IC50 (HCC1937) [nM],IC50 (4T1) [nM]
O=C(Nc1cc(C(F)(F)F)cc(C(F)(F)F)c1)N[C@@H](Cc1ccccc1)Cn1c[n+](Cc2ccccc2Br)c2ccccc21,236,1940,1620,9250,3000,3510
O=C(Nc1cc(C(F)(F)F)cc(C(F)(F)F)c1)N[C@@H](Cc1ccccc1)Cn1c[n+](Cc2ccc(Br)cc2)c2ccccc21,338,2190,2220,> 10000,1820,6770
O=C(Nc1cc(C(F)(F)F)cc(C(F)(F)F)c1)N[C@@H](Cc1ccccc1)Cn1c[n+](C/C=C/c2ccccc2)c2ccccc21,237,1530,2440,> 10000,2410,5630
O=C(Nc1ccc(Cl)c(Cl)c1)N[C@@H](Cc1ccccc1)Cn1c[n+](Cc2ccc3ccccc3c2)c2ccccc21,215,1550,2450,9720,3370,6770
O=C(Nc1cc(C(F)(F)F)cc(C(F)(F)F)c1)N[C@@H](Cc1ccccc1)Cn1c[n+](Cc2c(Cl)cccc2Cl)c2ccccc21,195,3150,3450,> 10000,2150,5530
Cc1ccc(NC(=O)N[C@@H](Cc2ccccc2)Cn2c[n+](Cc3ccc4ccccc4c3)c3ccccc32)cc1,399,2520,3690,> 10000,3620,6620
O=C(Nc1cc(C(F)(F)F)cc(C(F)(F)F)c1)N[C@@H](Cc1ccccc1)Cn1c[n+](Cc2ccc(C(F)(F)F)cc2)c2ccccc21,223,1610,2500,8120,2680,5630
C=CC[n+]1cn(C[C@H](Cc2ccccc2)NC(=O)Nc2cc(C(F)(F)F)cc(C(F)(F)F)c2)c2ccccc21,> 10000,> 10000,> 10000,> 10000,> 10000,> 10000
Cc1ccc(C[n+]2cn(C[C@H](Cc3ccccc3)NC(=O)Nc3cc(C(F)(F)F)cc(C(F)(F)F)c3)c3ccccc32)cc1,315,2990,2240,> 10000,1490,5800
O=C(Nc1cc(C(F)(F)F)cc(C(F)(F)F)c1)N[C@@H](Cc1ccccc1)Cn1c[n+](Cc2cccc(F)c2)c2ccccc21,133,2430,1710,9320,3170,5330
O=C(Nc1ccc(Br)cc1)N[C@@H](Cc1ccccc1)Cn1c[n+](Cc2ccc3ccccc3c2)c2ccccc21,277,2780,3050,> 10000,6560,6370
O=C(Nc1cc(C(F)(F)F)cc(C(F)(F)F)c1)N[C@@H](Cc1ccccc1)Cn1c[n+](Cc2ccc(Cl)cc2)c2ccccc21,319,1910,1810,9780,4530,4590
Cc1cc(C)cc(NC(=O)N[C@@H](Cc2ccccc2)Cn2c[n+](Cc3ccc4ccccc4c3)c3ccccc32)c1,327,2700,3250,> 10000,5980,7820
N#Cc1ccc(C[n+]2cn(C[C@H](Cc3ccccc3)NC(=O)Nc3cc(C(F)(F)F)cc(C(F)(F)F)c3)c3ccccc32)cc1,392,5030,2660,> 10000,3820,> 10000
O=C(Nc1ccc(F)cc1)N[C@@H](Cc1ccccc1)Cn1c[n+](Cc2ccc3ccccc3c2)c2ccccc21,394,1980,2800,8750,3200,8440
O=C(Nc1cc(C(F)(F)F)cc(C(F)(F)F)c1)N[C@@H](Cc1ccccc1)Cn1c[n+](Cc2cccc(Br)c2)c2ccccc21,170,1800,1580,8960,1690,2310
O=C(Nc1cc(C(F)(F)F)cc(C(F)(F)F)c1)N[C@@H](Cc1ccccc1)Cn1c[n+](Cc2cccc(OCc3ccccc3)c2)c2ccccc21,280,3200,1640,> 10000,3180,6890
